# Reference: patent US20240368225A1, “SELECTIVE SMALL MOLECULE AGONISTS AND PARTIAL AGONISTS OF TRK RECEPTORS” (THE TEXAS A&M UNIVERSITY SYSTEM, priority 2021, published 2024)
# Read-outs that look alike come from different tables or passages of the source. *1 amine or outer side, *2 acyl side, *3 side chain or, on linkers, in order; H or OH if unused. Where a SMILES comes first, the peptide text is derived from it. Bridges are numbered along the chain shown (N, C = ends). X1 = COc1ccc(C2=C3C=C(S(=O)(=O)O)C([*:1])=[N+]3[B-](F)(F)n3c2cc(S(=O)(=O)O)c3[*:2])cc1
# Key:
# HeLa-TrkA cells = type: cell-based
# Method: (§1) Cells were seeded at a density of 2000 cells per well. Cells were incubated in complete media for 24 hours. The media was aspirated, the cells washed twice with Dulbecco's Phosphate Buffered Saline, and the media was replaced with serum-free media to induce apoptosis unless otherwise halted. […] Cell survival was measured via alamarBlue assay after 48-72 hours to determine cell viability.
# (§2) The most promising compounds from the screen were selected for each cell line. Cells were treated with a serial dilution of the compound in serum free media with or without suboptimal neurotrophin and incubated for 48-72 hours, after which an alamarBlue assay was done to determine cell viability. Cell viability was normalized to DMSO (0%) and optimal neurotrophin (100%), depending on cell type. EC50 was calculated in Graphpad Prism using the dose response “[agonist] vs response—Variable slope” function. Data is presented as the mean +/−standard deviation of an experiment with 3-6 replicates. Results for selected compounds with HeLa-TrkA cells can be found in FIG. 19A-19D. Results for selected compounds with HEK293-TrkB cells can be found in FIG. 20A-20C. Results for selected compounds with NIH3T3-TrkC cells can be found in FIG. 21A-21D.
# NIH3T3-TrkC cells = type: cell-based; details: NIH3T3-TrkC cell survival
# Method: as §1
# Cells were treated with a serial dilution of the compound in serum free media with or without suboptimal neurotrophin and incubated for 48-72 hours, after which an alamarBlue assay was done to determine cell viability. Cell viability was normalized to DMSO (0%) and optimal neurotrophin (100%), depending on cell type. EC50 was calculated in Graphpad Prism using the dose response “[agonist] vs response—Variable slope” function. Data is presented as the mean +/−standard deviation of an experiment with 3-6 replicates.
# HEK293-TrkB cells = HEK293-TrkB cells (Homo sapiens, UniProt Q16620); assay: HEK293-TrkB cell survival dose response (alamarBlue); type: cell-based; details: for EC50: EC50, HEK293-TrkB cell survival, serum-free media, 48-72 hours; for Partial or True Agonism: HEK293-TrkB cell survival
# HEK293-TrkB cells, sequence (Q16620 32-822): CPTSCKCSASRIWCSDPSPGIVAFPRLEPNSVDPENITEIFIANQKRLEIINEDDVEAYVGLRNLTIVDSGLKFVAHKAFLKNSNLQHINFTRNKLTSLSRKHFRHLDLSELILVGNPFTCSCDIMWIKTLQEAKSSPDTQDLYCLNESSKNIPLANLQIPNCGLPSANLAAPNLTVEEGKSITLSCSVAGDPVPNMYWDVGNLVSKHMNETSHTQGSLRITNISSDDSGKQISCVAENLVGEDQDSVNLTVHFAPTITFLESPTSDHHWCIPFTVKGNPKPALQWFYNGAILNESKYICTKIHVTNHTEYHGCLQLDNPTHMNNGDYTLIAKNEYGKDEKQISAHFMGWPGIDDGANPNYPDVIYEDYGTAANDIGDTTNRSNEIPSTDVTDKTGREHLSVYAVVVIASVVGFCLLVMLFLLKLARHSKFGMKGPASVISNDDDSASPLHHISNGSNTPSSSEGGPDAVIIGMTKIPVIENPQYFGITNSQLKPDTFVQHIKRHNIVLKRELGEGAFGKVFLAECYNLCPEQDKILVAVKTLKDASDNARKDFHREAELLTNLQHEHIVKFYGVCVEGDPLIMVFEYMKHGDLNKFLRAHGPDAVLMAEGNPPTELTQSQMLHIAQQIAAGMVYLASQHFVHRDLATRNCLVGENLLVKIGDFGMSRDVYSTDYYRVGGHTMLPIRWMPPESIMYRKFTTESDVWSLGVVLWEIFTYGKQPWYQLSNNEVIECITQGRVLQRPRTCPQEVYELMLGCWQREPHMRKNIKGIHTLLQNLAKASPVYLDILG
# Method: as §1, §2
# Goblet cells = details: in vitro, background statement; cited from earlier work
# p75 = biological target: T1, p75 (Homo sapiens, UniProt P08138); details: background statement; cited from earlier work
# T1 sequence (P08138 29-427): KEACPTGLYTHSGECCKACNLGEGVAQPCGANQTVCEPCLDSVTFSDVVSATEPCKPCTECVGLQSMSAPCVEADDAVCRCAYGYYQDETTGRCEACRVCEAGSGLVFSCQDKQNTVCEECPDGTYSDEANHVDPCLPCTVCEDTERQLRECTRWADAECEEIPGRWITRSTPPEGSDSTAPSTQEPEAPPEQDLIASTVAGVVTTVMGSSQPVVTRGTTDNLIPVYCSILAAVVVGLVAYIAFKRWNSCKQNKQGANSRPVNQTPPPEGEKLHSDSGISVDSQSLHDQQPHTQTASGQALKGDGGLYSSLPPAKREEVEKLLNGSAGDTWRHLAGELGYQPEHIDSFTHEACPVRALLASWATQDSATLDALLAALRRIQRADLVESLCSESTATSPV
# TrkA = TrkA (Homo sapiens, UniProt P04629); details: background statement; cited from earlier work
# TrkA, sequence (P04629 33-796, species assumed): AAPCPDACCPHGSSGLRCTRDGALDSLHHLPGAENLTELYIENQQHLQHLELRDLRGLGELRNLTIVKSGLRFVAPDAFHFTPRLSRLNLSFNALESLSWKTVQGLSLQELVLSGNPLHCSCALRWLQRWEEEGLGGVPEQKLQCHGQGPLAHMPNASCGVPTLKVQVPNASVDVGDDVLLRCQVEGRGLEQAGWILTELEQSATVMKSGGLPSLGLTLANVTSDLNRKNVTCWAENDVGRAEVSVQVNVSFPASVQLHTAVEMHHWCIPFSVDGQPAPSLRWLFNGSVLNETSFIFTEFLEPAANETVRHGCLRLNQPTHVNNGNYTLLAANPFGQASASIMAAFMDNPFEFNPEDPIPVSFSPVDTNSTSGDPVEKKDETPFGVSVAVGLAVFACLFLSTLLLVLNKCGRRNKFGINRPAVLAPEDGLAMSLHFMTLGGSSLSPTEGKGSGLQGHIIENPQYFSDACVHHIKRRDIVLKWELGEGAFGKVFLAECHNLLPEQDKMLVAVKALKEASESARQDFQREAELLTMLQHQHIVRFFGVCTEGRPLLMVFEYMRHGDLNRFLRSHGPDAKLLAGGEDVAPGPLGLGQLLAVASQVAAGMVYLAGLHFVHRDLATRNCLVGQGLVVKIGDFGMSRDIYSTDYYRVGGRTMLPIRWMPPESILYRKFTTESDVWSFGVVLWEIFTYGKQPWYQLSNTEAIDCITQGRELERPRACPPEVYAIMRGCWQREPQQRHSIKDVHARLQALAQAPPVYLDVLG
# TrkC = TrkC (Homo sapiens, UniProt Q16288); details: background statement; cited from earlier work
# TrkC, sequence (Q16288 32-839, species assumed): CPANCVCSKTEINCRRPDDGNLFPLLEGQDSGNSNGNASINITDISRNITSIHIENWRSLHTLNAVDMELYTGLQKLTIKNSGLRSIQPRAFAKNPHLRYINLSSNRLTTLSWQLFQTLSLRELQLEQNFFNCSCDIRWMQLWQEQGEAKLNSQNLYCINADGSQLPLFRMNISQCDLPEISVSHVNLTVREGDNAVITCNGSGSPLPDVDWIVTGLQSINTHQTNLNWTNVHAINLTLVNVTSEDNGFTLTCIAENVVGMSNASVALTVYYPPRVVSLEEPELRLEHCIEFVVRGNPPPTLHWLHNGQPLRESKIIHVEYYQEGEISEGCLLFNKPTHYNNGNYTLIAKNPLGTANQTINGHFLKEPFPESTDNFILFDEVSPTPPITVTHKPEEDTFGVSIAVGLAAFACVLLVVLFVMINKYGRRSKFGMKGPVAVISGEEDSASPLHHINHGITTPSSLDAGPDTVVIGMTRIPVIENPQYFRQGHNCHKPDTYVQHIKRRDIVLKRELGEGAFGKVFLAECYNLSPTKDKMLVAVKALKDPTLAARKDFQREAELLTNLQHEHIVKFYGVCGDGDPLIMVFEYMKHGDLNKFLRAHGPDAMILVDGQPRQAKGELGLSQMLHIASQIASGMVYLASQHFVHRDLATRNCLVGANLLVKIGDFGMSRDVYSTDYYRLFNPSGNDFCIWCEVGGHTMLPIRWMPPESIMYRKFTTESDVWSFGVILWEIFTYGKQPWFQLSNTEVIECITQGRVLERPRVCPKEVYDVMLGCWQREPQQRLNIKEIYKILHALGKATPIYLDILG
# [1] = HeLa-TrkA cell survival, without suboptimal neurotrophin
# [2] = HeLa-TrkA cell survival, + 0.2 nM NGF
# [3] = HeLa-TrkA cell survival, serum-free media, + 0.2 nM NGF (suboptimal), 48-72 hours, read-out: EC50
# [4] = HeLa-TrkA cell survival, serum-free media, without suboptimal neurotrophin, 48-72 hours, read-out: EC50
# [5] = without suboptimal neurotrophin
Compound,Partial or True Agonism (HeLa-TrkA cells; [1]),Partial or True Agonism (NIH3T3-TrkC cells; + 0.2 nM NT3),EC50 (HEK293-TrkB cells; + 0.6 nM BDNF (suboptimal)) [µM],EC50 (HEK293-TrkB cells; [5]) [µM],Partial or True Agonism (HEK293-TrkB cells; + 0.6 nM BDNF),Partial or True Agonism (HEK293-TrkB cells; [5]),other results
CC[C@H](C)[C@@H]1NC(=O)[C@H](CC(N)=O)NC(=O)C(C(C)C)n2cc(nn2)CC(C(=O)N[C@@H](CCCCNS(=O)(=O)c2cccc3c(N(C)C)cccc23)C(=O)O)NC(=O)[C@H](Cc2ccccc2)NC(=O)[C@H](C(C)C)NC(=O)[C@H](CO)NC(=O)[C@H](CC(N)=O)NC(=O)[C@H](CC(N)=O)NC1=O (stereo partly drawn) [1a(ii)ext],true,–,–,–,–,–,EC50 (HeLa-TrkA cells): 7.07 µM
CC[C@H](C)[C@@H]1NC(=O)[C@@H]2C[C@@H](CN2)NC(=O)[C@H](CO)NC(=O)[C@H](CC(N)=O)NC(=O)[C@H](CC(N)=O)NC1=O [3a(ii)],true,–,–,–,–,–,EC50 (HeLa-TrkA cells): 10 µM
CC[C@H](C)[C@@H]1NC(=O)[C@H](CC(=O)O)NC(=O)[C@@H]2C[C@@H](CN2)NC(=O)CNC(=O)[C@H](CCCNC(=N)N)NC1=O [3c(i)],–,partial,–,–,–,–,–
COc1ccc(C2=C3C=C(S(=O)(=O)O)C4=[N+]3[B-](F)(F)n3c2cc(S(=O)(=O)O)c3SC[C@@H](C(N)=O)NC(=O)[C@H](CCC(N)=O)NC(=O)[C@H](CCCCN)NC(=O)[C@H](CCC(=O)O)NC(=O)[C@H](CC(=O)O)NC(=O)[C@@H](NC(C)=O)CS4)cc1 [5a(iii)m] (Ac-CDEKQC-NH2; linker 1-6 via X1),true,–,–,–,–,–,Partial or True Agonism (HeLa-TrkA cells; [2]): partial; EC50 (HeLa-TrkA cells; [3]): 0.5 µM; EC50 (HeLa-TrkA cells; [4]): 2.4 µM
COc1ccc(C2=C3C=C(S(=O)(=O)O)C4=[N+]3[B-](F)(F)n3c2cc(S(=O)(=O)O)c3SC[C@@H](C(N)=O)NC(=O)CNC(=O)[C@H](CO)NC(=O)[C@H](CCSC)NC(=O)[C@H](CC(=O)O)NC(=O)[C@@H](NC(C)=O)CS4)cc1 [5b(i)] (Ac-CDMSGC-NH2; linker 1-6 via X1),–,–,1.8,0.4,partial,true,–
COc1ccc(C2=C3C=C(S(=O)(=O)O)C4=[N+]3[B-](F)(F)n3c2cc(S(=O)(=O)O)c3SC[C@@H](C(N)=O)NC(=O)CNC(=O)[C@H](CCCCN)NC(=O)[C@H](CO)NC(=O)[C@H](C(C)C)NC(=O)[C@@H](NC(C)=O)CS4)cc1 [5b(ii)] (Ac-CVSKGC-NH2; linker 1-6 via X1),–,–,2.8,0.9,partial,true,–
CC[C@H](C)[C@@H]1NC(=O)[C@H](CC(=O)O)NC(=O)[C@@H](NC(C)=O)CSC2=[N+]3C(=C(c4ccc(OC)cc4)c4cc(S(=O)(=O)O)c(n4[B-]3(F)F)SC[C@@H](C(N)=O)NC(=O)CNC(=O)[C@H](CCCNC(=N)N)NC1=O)C=C2S(=O)(=O)O [5c(i)] (Ac-CDIRGC-NH2; linker 1-6 via X1),–,partial,2.2,0.1,partial,true,Partial or True Agonism (NIH3T3-TrkC cells; [5]): true
COc1ccc(C2=C3C=C(S(=O)(=O)O)C4=[N+]3[B-](F)(F)n3c2cc(S(=O)(=O)O)c3SC[C@@H](C(N)=O)NC(=O)[C@H](CO)NC(=O)[C@H](CC(N)=O)NC(=O)[C@H](CCC(N)=O)NC(=O)[C@H]([C@@H](C)O)NC(=O)[C@@H](NC(C)=O)CS4)cc1 [5c(ii)] (Ac-CTQNSC-NH2; linker 1-6 via X1),true,–,–,–,–,–,Partial or True Agonism (HeLa-TrkA cells; [2]): partial; EC50 (HeLa-TrkA cells; [3]): 0.3 µM; EC50 (HeLa-TrkA cells; [4]): 4.5 µM
COc1ccc(C2=C3C=C(S(=O)(=O)O)C4=[N+]3[B-](F)(F)n3c2cc(S(=O)(=O)O)c3SC[C@@H](C(N)=O)NC(=O)[C@H](CCCCN)NC(=O)[C@H](CC(N)=O)NC(=O)[C@H](CC(N)=O)NC(=O)[C@H](CCC(=O)O)NC(=O)[C@@H](NC(C)=O)CS4)cc1 [5c(iii)] (Ac-CENNKC-NH2; linker 1-6 via X1),–,partial,–,–,–,–,Partial or True Agonism (NIH3T3-TrkC cells; [5]): true
Tavilermide [D3],–,–,–,–,–,–,glycoconjugated mucin secretion (Goblet cells): increased glycoconjugated mucin secretion; p75 activation (p75): does not activate p75; TrkA agonism (TrkA): partial TrkA agonist; TrkC binding (TrkC): does not bind TrkC
